Source: patent US20190365927A1, “COMPOSITION FOR PHOTODYNAMIC THERAPY USING GENE EXPRESSING FLUORESCENT PROTEIN AND PHOTOSENSITIZER, AND PHOTODYNAMIC THERAPY METHOD USING SAME” (priority 2017, published 2019)

Legend:
eGFP+ and eGFP− cells = assay: Cytotoxicity with Ce6 and 650-nm red laser light, eGFP+ versus eGFP− cells; format: cell-based; conditions: FIG. 5
[1] = system: GFP+ 4T1 cells, RFP+ 4T1 cells and control 4T1 cells; assay: In vitro PDT of GFP+ and RFP+ cells with photosensitizer and red, blue or yellow light, MTT analysis; format: cell-based, mouse; conditions: FIG. 14; for cytotoxicity in control, RFP+ and GFP+ cells: 1 μM photosensitizer
Protocol: The cytotoxicity of RFP+ or GFP+ cells was measured by MTT analysis in the presence of Ce6 (Chlorine (e6)), rose bengal or tin ethyl etiopurpurin as photosensitizer after red light, blue light or yellow light irradiation. The specific experimental procedure is as follows.
Specifically, Ce6 (santacruz, sc-263067), rose bengal (Sigma Aldrich, 330000-5G) or tin ethyl etiopurpurin as a photosensitizer was diluted with RPMI-1640 medium containing 10% FBS. Thus, 1 μM concentration of Ce6 (Chlorine (e6)), rose bengal or tin ethyl etiopurpurin was prepared. Further, GFP+ 4T1 cells selected in the 1-4 and RFP+ 4T1 cells selected in the 1-3 were pre-cultured at a density of 2×10^4 cells/well in 96-well, black, and clear bottom plates. The pre-cultured cells were then incubated with Ce6, rose bengal or tin ethyl etiopurpurin for 4 h. 4T1 cells without RFP or GFP introduced thereto were used as controls. After 4 hours, the cells were washed three times with PBS buffer. Then, red laser light (650 nm; radiation dose rate=2 J/cm^2) or blue laser light (488 nm; radiation dose rate=2 J/cm^2) or yellow laser light (570 nm, radiation dose rate=2 J/cm^2) was irradiated thereto for 5 seconds. After the irradiation, the fresh culture medium was added to the wells. Then, the cells were cultured again for 24 hours. MTT analysis was then performed.

[2] = system: GFP+ A549, RFP+ A549 and YFP+ A549 cells; assay: In vitro PDT of GFP+, RFP+ and YFP+ cells with photosensitizer, MTT analysis; format: cell-based, human; conditions: 1 μM, yellow laser light (570 nm), FIG. 21, 22
Protocol: Photo inducing death of GFP+, RFP+, and YFP+ cells via the photosensitizer was measured by MTT analysis. The specific experimental procedure is as follows.
To investigate photo inducing death of GFP+ cells, RFP+ cells, and YFP+ cells via the photosensitizer, rose bengal, hematoporphyrin (Sigma-aldrich #5518) or 5-ALA (5-Aminolevulinic acid hydrochloric, Sigma-aldrich # A3785) was diluted with RPMI medium containing 10% FBS. 1 μM concentration of rose bengal, hematoporphyrin or 5-ALA was prepared. Further, GFP+ A549 cells, RFP+ A549 cells and YFP+ A549 cells selected from the 1-4 were pre-incubated at a density of 5×10^3 cells per well on 96-well, black, and clear bottom plates. A549 cells with pcDNA 3.1 vector injected thereto were cultured as control. Then, each of the photosensitizers as produced was applied or not applied to the preincubated cells in the preincubated cells which in turn were cultured for 4 hours. After 4 hours, the cells were washed three times with PBS buffer. Irradiation or non-irradiation of blue laser light (488 nm; radiation dose rate=2 J/cm^2) or yellow laser light (570 nm; radiation dose rate=2 J/cm^2) thereto was carried out for 5 seconds. After irradiation or non-irradiation, a fresh culture medium was added to the wells. The cells were cultured again for 24 hours. MTT analysis was then performed.

RFP+ and RFP− 4T1 cells [3] = assay: In vitro PDT with tin ethyl etiopurpurin and yellow light over irradiation time, LDH and MTT analysis; format: cell-based, mouse; conditions: 1 μM, yellow laser light, in 2 seconds after light irradiation, FIG. 11, 12
Protocol: The yellow light was irradiated over time, and then photo inducing death of RFP+ and RFP− cells was measured by MTT analysis under the presence of tin ethyl etiopurpurin. The specific experimental procedure is as follows.
Specifically, tin ethyl etiopurpurin (Miravant Medical Technology Inc, USA) was diluted with RPMI-1640 medium containing 10% FBS to produce 1 μM concentration of tin ethyl etiopurpurin. Further, the RFP− or RFP+ 4T1 cells selected from the above 1-3 were pre-incubated in a 24-well plate at a density of 5×10^4 cells per well. The pre-cultured cells were then incubated with tin ethyl etiopurpurin for 4 h. After 4 hours, the cells were washed three times with PBS buffer. Then, the yellow laser light (570 nm; radiation dose rate=2 J/cm^2) was irradiated thereto for 0, 5 and 10 seconds. LDH analysis was then performed using the LDH Cytotoxicity Assay kit (Cayman Chemical Company, USA) according to the manufacturer's procedure. […] The absorbance was measured at 490 nm using a plate reader.
Further, the RFP− or RFP+ 4T1 cells selected from the 1-3 using the same method as described above were subjected to the yellow laser light (570 nm; radiation dose rate=2J/cm^2) for 0, 1, 2, 5, 7, or 10 secs. […] The absorbance of the reaction solution was measured at 570 nm. Cell viability was calculated by the following equation: […]

RFP+ and RFP− 4T1 cells [4] = assay: In vitro PDT with varying tin ethyl etiopurpurin concentration, MTT analysis; format: cell-based, mouse; conditions: 0, 0.5, 1 and 2 μM, yellow laser light 5 seconds, FIG. 13
Protocol: After irradiation with yellow light, the photo inducing death of RFP+ and RFP− cells was measured by MTT analysis under the conditions of varying tin ethyl etiopurpurin concentrations. The specific experimental procedure is as follows.
Specifically, tin ethyl etiopurpurin was produced at 0, 0.5, 1 and 2 μM concentrations in the same method as described above. Then, the cells were cultured for 4 hours with RFP− or RFP+ 4T1 cells selected from the 1-3. MTT analysis was performed after irradiation of yellow laser light (570 nm; radiation dose rate=2 J/cm^2) thereto for 5 seconds.

[5] = system: GFP+ 4T1 cells and RFP+ 4T1 cells; assay: Experiment using artificial skin, MTT assay; format: cell-based, mouse; conditions: presence as well as absence of artificial skin (1 mm), 1 μM, yellow laser light, FIG. 17
Protocol: Actual skin condition was applied. photosensitizer was applied to GFP+ cell and RFP+ cell which in turn was irradiated with light. Then, cell death was measured by MTT assay. The specific experimental procedure is as follows.
Specifically, rose bengal and tin ethyl etiopurpurin at 1 μM concentration were produced in the same method as described in the 2-4. Then, the tin ethyl etiopurpurin was applied to RFP+ 4T1 cells selected from the 1-3. The rose bengal was applied to GFP+ 4T1 cells selected from 1-4. Then, the cells were cultured for 4 hours and washed three times with PBS buffer. Next, as shown in the schematic diagram of FIG. 16, an artificial skin tissue (AST, thickness 1 mm) (Geistlich Mucograft, Geistlich Pharma AG) was placed between the light source and the cell. Thus, the actual skin condition was established. Then, blue laser light (473 nm; radiation dose rate=2 J/cm^2) was applied to GFP+ cells for 5 seconds. Yellow laser light (580 nm; radiation dose rate=2 J/cm^2) were irradiated to RFP+ cells for 5 seconds. In 2 hours of the irradiation, the cells were washed twice with PBS buffer. MTT analysis was carried out in the same method as described in the Experimental Example 2-2. […]

**Q.** For chlorine e6 [Ce6], which “cytotoxicity for eGFP+ versus eGFP− cells” value (eGFP+ and eGFP− cells) is on record?
**A.** Its value is “not different from each other”.

**Q.** And the “cytotoxicity in control, RFP+ and GFP+ cells” value ([1]; red laser light (650 nm))?
**A.** Its value is “control, RFP+, and GFP+ cells showed cytotoxicity”.

**Q.** For Cl.NCC(=O)CCC(=O)O [5-ALA, 5-Aminolevulinic acid hydrochloride], which “cell death effect in YFP+ cell and RFP+ cell” value [2] is on record?
**A.** The value was “significant cell death effect”.

**Q.** What about the “cell death effect of RFP+ cell” value [2] of the same compound?
**A.** Its value is “remarkable cell death effect”.

**Q.** For CCOC(=O)C1=Cc2c3nc(cc4nc(cc5[n-]c(cc6[n-]c2c(C)c6CC)c(C)c5CC)C(C)=C4CC)[C@@H](C)[C@]13CC.[Cl-].[Cl-].[Sn] (racemic) [tin ethyl etiopurpurin], which “RFP+ cell death compared to RFP− cell, by irradiation duration” value (RFP+ and RFP− 4T1 cells [3]) is on record?
**A.** The value was “RFP+ cell death increased considerably”.

**Q.** And the “RFP+ cell death by treatment concentration” value (RFP+ and RFP− 4T1 cells [4])?
**A.** Its value is “increased remarkably”.

**Q.** What about the “cytotoxicity in control, RFP+ and GFP+ cells” value ([1]; yellow laser light) of the same compound?
**A.** Its value is “cytotoxicity was seen only in RFP+ cells”.

**Q.** What about the “degree of cytotoxicity in RFP+ cells versus GFP+ cells treated with rose bengal and blue laser light” value ([1]; 1 μM, yellow laser light) of the same compound?
**A.** The value was “the degree of cytotoxicity was higher”.

**Q.** What about the “cell death level of RFP+ cells versus GFP+ cells treated with rose bengal and blue laser light” value [5] of the same compound?
**A.** The value was “the cell death level was higher”.
